Measured values as given in article PMC8351955, “Targeting Mycobacterium tuberculosis response to environmental cues for the development of effective antitubercular drugs” (PLoS Biology, 2021).
Like-named read-outs stand apart in the source and are kept apart here.

Key:
[1] = test system: CDC1551(rv2390c′::GFP) reporter Mtb strain, response to high [Cl−]; experiment: microbe, parasite or virus in culture; assay type: cell-based, Mycobacterium tuberculosis; settings: Mycobacterium tuberculosis, 144 h; for activity at 20 µM: read-out: rv2390c'::GFP validation assay NPA% at 20 µM compound
[2] = test system: CDC1551(rv1405c′::GFP) reporter Mtb strain; experiment: microbe, parasite or virus in culture; assay type: cell-based, Mycobacterium tuberculosis; settings: Mycobacterium tuberculosis; for activity at 10 µM: read-out: rv1405c'::GFP secondary assay NPA% at 10 µM compound; for activity at 20 µM: read-out: rv1405c'::GFP secondary assay NPA% at 20 µM compound
[3] = pH 6.4, […], DMSO positive control = 100%, read-out: Primary screen rv2390c'::GFP NPA%
[4] = 10 µM, pH 6.4, 250 mM NaCl, 6 days, read-out: rv2390c'::GFP validation assay NPA% at 10 µM compound

SMILES	activity at 10 µM [1, 3] [%]	activity at 10 µM [1, 4] [%]	activity at 20 µM ([1]; pH 6.4, 250 mM NaCl, 6 days) [%]	activity at 10 µM [2] [%]	activity at 20 µM [2] [%]
Cc1ccc(C(C)NC(=O)Nc2ccc(C#N)c(Cl)c2)o1 (stereo not drawn) [RU-0272807, CC(NC(=O)NC1=CC(Cl)=C(C=C1)C#N)C1=CC=C(C)O1]	160	113 ± 12.8	133 ± 5.6	90.5 ± 6.1	128 ± 12
Cc1ccccc1OCC(=O)NCc1ccc(C)n1C [RU-0272839, CN1C(C)=CC=C1CNC(=O)COC1=C(C)C=CC=C1]	215	161 ± 13.6	204 ± 5.5	93 ± 7.6	104 ± 5.9
COc1ccc(OC)c(C2CCCN2C(=O)NCc2cccs2)c1 (stereo not drawn) [RU-0273525, COC1=CC(C2CCCN2C(=O)NCC2=CC=CS2)=C(OC)C=C1]	150	158 ± 14.1	232 ± 6.9	119 ± 11.1	184 ± 6.5
CCOc1cc(F)ccc1NC(=O)Nc1cccc(C#N)c1 [RU-0273629, CCOC1=C(NC(=O)NC2=CC(=CC=C2)C#N)C=CC(F)=C1]	170	203 ± 16.4	318 ± 21.4	188 ± 18	540 ± 65.6
Cc1cc(NS(=O)(=O)Cc2cccc(C(F)(F)F)c2)n(C)n1 [RU-0274447, CN1N=C(C)C=C1NS(=O)(=O)CC1=CC(=CC=C1)C(F)(F)F]	186	171 ± 11.2	252 ± 10.1	303 ± 7.6	619 ± 9.2
CCc1nnc(NC(=O)c2sc(CC(C)C)nc2C)s1 [RU-0274734, CCC1=NN=C(NC(=O)C2=C(C)N=C(CC(C)C)S2)S1]	170	150.7 ± 1.2	178 ± 7.2	97.2 ± 4.2	102 ± 3.9
Cc1ccc(NC(=O)c2cc(C)n(C3CC3)c2C)c(C)c1 [RU-0276186, CC1=CC(C(=O)NC2=C(C)C=C(C)C=C2)=C(C)N1C1CC1]	159	105 ± 5.3	157 ± 13.8	95.4 ± 4.5	123 ± 13.3
CCc1ccc(NC(=O)C2(N(C)C)Cc3ccccc3C2)cc1 [RU-0276433, CCC1=CC=C(NC(=O)C2(CC3=C(C2)C=CC=C3)N(C)C)C=C1]	157	124 ± 10.1	186 ± 4.9	171 ± 9.3	312 ± 25.3
CC(C)(C)n1cc(C#N)c(NS(=O)(=O)c2cccc(F)c2)n1 [RU-0277089, CC(C)(C)N1C=C(C#N)C(NS(=O)(=O)C2=CC(F)=CC=C2)=N1]	45.4	51.2 ± 5.5	28.2 ± 0.7	43.2 ± 4.1	17.4 ± 5.4
COc1ccc(COc2ccccc2NC(C)=O)cc1Br [RU-0277875, COC1=C(Br)C=C(COC2=C(NC(C)=O)C=CC=C2)C=C1]	175	138 ± 7.5	229 ± 11.9	139 ± 5.6	199 ± 12.2
CC(C)c1cc(C(=O)NC2CCN(c3cccc(F)c3)CC2)n[nH]1 [RU-0278450, CC(C)C1=CC(=NN1)C(=O)NC1CCN(CC1)C1=CC(F)=CC=C1]	175	118 ± 5.7	231 ± 1	92.3 ± 5.3	146 ± 5.1
Cn1cc(CCC(=O)Nc2ccc3c(c2)S(=O)(=O)C=C3)cn1 [RU-0278569, CN1C=C(CCC(=O)NC2=CC3=C(C=CS3(=O)=O)C=C2)C=N1]	47.1	80.9 ± 7.4	63.4 ± 5.6	74.5 ± 5.4	76.5 ± 4.9
